Source: patent US10780074B2, “Compounds and uses thereof” (Sunovion Pharmaceuticals Inc., priority 2017, dated 2020)
Structures can show the parent of a compound that is named as a salt. Where two headings read alike, the source gives them in different places.

Test system: behaviors of compound-treated mice
Experiment: Neuropharmacological Assay (SmartCube)
Format: in vivo
Details: for minimal effective dose: Mus musculus, ip, 0.25 h, dose having 50% or more total activity in SmartCube, read-out: MED (minimal effective dose)
Procedure, shortened: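 Mice dosed i.p. 15 min before testing, with compound in N-methyl-2-pyrrolidone/PEG/propylene glycol, were video-recorded and algorithmically compared with reference-drug behavioral signatures. This gave class-match probabilities (antidepressant, anxiolytic, etc.) at the most efficacious of 3 doses. MED was defined as the dose with ≥50% total activity, usually tested across 0.3–30 mpk.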

[1] = i.p. 15 min before behavioral test, most efficacious dose(s) of 3 doses
[2] = SmartCube, i.p. 15 min before test, most efficacious dose(s)

| Compound | minimal effective dose (i.p.) [mg/kg] | AD: ADHD (probability that activity matches class) [1] | AG: analgesic (probability that activity matches class) [1] | AX: anxiolytic (probability that activity matches class) [1] | CE: cognitive enhancer (probability that activity matches class) [1] | DP: anti-depressant (probability that activity matches class) [1] | MS: mood stabilizer (probability that activity matches class) [1] | PS: anti-psychotic (probability that activity matches class) [1] | SD: sedative hypnotic (probability that activity matches class) [1] | UN: uncharacterized CNS activity (probability that activity matches class) [1] | minimal effective dose [mg/kg] | AD: ADHD (probability that activity matches class) [2] | AG: analgesic (probability that activity matches class) [2] | AX: anxiolytic (probability that activity matches class) [2] | CE: cognitive enhancer (probability that activity matches class) [2] | DP: anti-depressant (probability that activity matches class) [2] | MS: mood stabilizer (probability that activity matches class) [2] | PS: anti-psychotic (probability that activity matches class) [2] | SD: sedative hypnotic (probability that activity matches class) [2] | UN: uncharacterized CNS activity (probability that activity matches class) [2] |
| --- | --- | --- | --- | --- | --- | --- | --- | --- | --- | --- | --- | --- | --- | --- | --- | --- | --- | --- | --- | --- |
| CNC[C@@H]1OCCc2c(-c3ccon3)cccc21 (single isomer, unassigned) [Compound 90, hydrochloride salt] | 10 to 30 | + (LOQ ≤ + <5%) | + (LOQ ≤ + <5%) | ++ (5% ≤ ++ <25%) | + (LOQ ≤ + <5%) | + (LOQ ≤ + <5%) | + (LOQ ≤ + <5%) | + (LOQ ≤ + <5%) | + (LOQ ≤ + <5%) | + (LOQ ≤ + <5%) |  |  |  |  |  |  |  |  |  |  |
| NC[C@@H]1OCCc2cccc(-c3cccnc3)c21 (single isomer, unassigned) [Compound 9, hydrochloride] | 10 to 30 | + (LOQ ≤ + <5%) | ++ (5% ≤ ++ <25%) | ++ (5% ≤ ++ <25%) | + (LOQ ≤ + <5%) | ++ (5% ≤ ++ <25%) | + (LOQ ≤ + <5%) | ++ (5% ≤ ++ <25%) | + (LOQ ≤ + <5%) | + (LOQ ≤ + <5%) |  |  |  |  |  |  |  |  |  |  |
| NCC1OCCc2c(-c3ccnnc3)cccc21 (centres unmarked) [Compound 61, (5-(Pyridazin-4-yl)isochroman-1-yl)methanamine hydrochloride salt] | 10 to 30 | + (LOQ ≤ + <5%) | + (LOQ ≤ + <5%) | ++ (5% ≤ ++ <25%) | + (LOQ ≤ + <5%) | ++ (5% ≤ ++ <25%) | + (LOQ ≤ + <5%) | + (LOQ ≤ + <5%) | + (LOQ ≤ + <5%) | ++++ (50% ≤ ++++) |  |  |  |  |  |  |  |  |  |  |
| NC[C@@H]1OCCc2c(-c3cncs3)cccc21 (single isomer, unassigned) [Compound 70, hydrochloride salt] | 3 to 10 | ++ (5% ≤ ++ <25%) | + (LOQ ≤ + <5%) | ++ (5% ≤ ++ <25%) | + (LOQ ≤ + <5%) | ++++ (50% ≤ ++++) | + (LOQ ≤ + <5%) | + (LOQ ≤ + <5%) | + (LOQ ≤ + <5%) | +++ (25% ≤ +++ <50%) |  |  |  |  |  |  |  |  |  |  |
| CNCC1OCCc2c(-c3cnoc3)cccc21 (centres unmarked) [Compound 65, 1-(5-(Isoxazol-4-yl)isochroman-1-yl)-N-methylmethanamine hydrochloride salt] | 3 to 10 | ++ (5% ≤ ++ <25%) | + (LOQ ≤ + <5%) | + (LOQ ≤ + <5%) | ++ (5% ≤ ++ <25%) | ++++ (50% ≤ ++++) | + (LOQ ≤ + <5%) | ++ (5% ≤ ++ <25%) | ++ (5% ≤ ++ <25%) | ++ (5% ≤ ++ <25%) |  |  |  |  |  |  |  |  |  |  |
| NC[C@H]1OCCc2c(-c3ccon3)cccc21 (single isomer, unassigned) [Compound 89, hydrochloride salt] | ≤ 3 | ++ (5% ≤ ++ <25%) | ++ (5% ≤ ++ <25%) | +++ (25% ≤ +++ <50%) | + (LOQ ≤ + <5%) | ++++ (50% ≤ ++++) | + (LOQ ≤ + <5%) | ++ (5% ≤ ++ <25%) | + (LOQ ≤ + <5%) | ++ (5% ≤ ++ <25%) |  |  |  |  |  |  |  |  |  |  |
| NC[C@H]1OCCc2ccc(-c3ccncc3)cc21 [Compound 48, (S)-(7-(pyridin-4-yl)isochroman-1-yl)methanamine hydrochloride] | 3 to 10 | + (LOQ ≤ + <5%) | + (LOQ ≤ + <5%) | ++ (5% ≤ ++ <25%) | ++ (5% ≤ ++ <25%) | + (LOQ ≤ + <5%) | + (LOQ ≤ + <5%) | ++ (5% ≤ ++ <25%) | +++ (25% ≤ +++ <50%) | +++ (25% ≤ +++ <50%) |  |  |  |  |  |  |  |  |  |  |
| Cc1cc(-c2cccc3c2CCO[C@H]3CN)ccn1 (single isomer, unassigned) [Compound 122, hydrochloride salt] | 10 to 30 | + (LOQ ≤ + <5%) | + (LOQ ≤ + <5%) | ++ (5% ≤ ++ <25%) | + (LOQ ≤ + <5%) | + (LOQ ≤ + <5%) | + (LOQ ≤ + <5%) | + (LOQ ≤ + <5%) | + (LOQ ≤ + <5%) | + (LOQ ≤ + <5%) |  |  |  |  |  |  |  |  |  |  |
| NC[C@H]1OCCc2c1cccc2-n1ccnc1 [Compound 185, (S)-(5-(1H-Imidazol-1-yl)isochroman-1-yl)methanamine hydrochloride salt] |  |  |  |  |  |  |  |  |  |  | 10 to 30 | + (LOQ ≤ + <5%) | + (LOQ ≤ + <5%) | ++ (5% ≤ ++ <25%) | + (LOQ ≤ + <5%) | ++ (5% ≤ ++ <25%) | + (LOQ ≤ + <5%) | + (LOQ ≤ + <5%) | + (LOQ ≤ + <5%) | + (LOQ ≤ + <5%) |
| Cc1cc(-c2cccc3c2CCO[C@@H]3CN)ccn1 (single isomer, unassigned) [Compound 123, hydrochloride salt] | ≤ 3 | ++ (5% ≤ ++ <25%) | + (LOQ ≤ + <5%) | ++ (5% ≤ ++ <25%) | + (LOQ ≤ + <5%) | ++++ (50% ≤ ++++) | + (LOQ ≤ + <5%) | + (LOQ ≤ + <5%) | + (LOQ ≤ + <5%) | + (LOQ ≤ + <5%) |  |  |  |  |  |  |  |  |  |  |
| CNC[C@H]1OCCc2c(-c3cn[nH]c3)cccc21 [Compound 119, (S)-1-(5-(1H-pyrazol-4-yl)isochroman-1-yl)-N-methylmethanamine hydrochloride salt] | ≤ 3 | ++ (5% ≤ ++ <25%) | + (LOQ ≤ + <5%) | ++ (5% ≤ ++ <25%) | + (LOQ ≤ + <5%) | ++++ (50% ≤ ++++) | + (LOQ ≤ + <5%) | + (LOQ ≤ + <5%) | ++ (5% ≤ ++ <25%) | + (LOQ ≤ + <5%) |  |  |  |  |  |  |  |  |  |  |
